“And” between values parts separate entries of the source, which are not always exact repeats. Equal values may be shown once. Read-outs that look alike come from different tables or passages of the source. Marks after values point to notes of the source that are not given here.
Legend:
DU-145 = tested on: DU-145; parameters: method as in PMID 34681843; details: DU-145, AR negative, three days, MTS; cited from earlier work
LAPC-4 cells [1] = test: Apoptosis characterization by flow cytometry (annexin-V/PI); type: cell-based, human; details: 72 h
Protocol: This experiment was performed with LAPC-4 cells (3 × 10^5) following the protocol previously reported for PC-3 cells. After the detection of annexin-V and propidium iodide fluorescence, dual parametric dot plots allowed us to calculate the percentage of each cell type: (1) non-apoptotic live cells (annexin-V-negative/PI-negative) in the lower left quadrant; (2) early apoptotic cells (annexin-V-positive/PI-negative) in the lower right quadrant; (3) late apoptotic cells (annexin-V-positive/PI-positive) in the upper right quadrant; and (4) necrotic cells (annexin-V-negative/PI-positive) in the upper left quadrant.

[2] = Dosage of RM-581 in tumors and plasma (LC-MS/MS); type: in vivo, mice; details: for RM-581 in Plasma / RM-581 in Tumor / concentration at 3 h: 3 h after last treatment; for concentration at 3 h / Kp at 3 h: nude, mouse; for Kp at 3 h: tumor/plasma, ng/g = ng/mL assumed, read-out: Concentration Index (Tumor/Plasma)
Protocol: The mice were weighed at the start and end of the protocol. Tumor area (mm^2) was calculated twice a week using two perpendicular diameters (L and W), which were recorded using a caliper, and the formula L/2 × W/2 × π. The area measured on the first day of treatment was fixed at 100%. At the end of the studies and 3 h after the last treatment, the mice were terminally anesthetized, and their final body weights were measured. Tumors, liver, kidney, and total prostate were collected from mice during necropsy, while blood was collected by cardiac puncture. Tissues and plasma were immediately frozen at −80 °C until analysis.

[3] = Toxicity during LAPC-4 xenograft protocol (signs, body weight, histopathology); type: in vivo, mice; details: 28 days
Description: Tissue samples from xenograft experiments were fixed in neutral buffered 10% formalin and processed for routine paraffin embedding. Tissue sections (3 µm) were stained with hematoxylin and eosin (HE) and histologically observed by an independent pathologist. Digital images at 20× magnification of each slide were obtained using the slide scanner NanoZoomer 2.0-HT (Hamamatsu, Bridgewater, NJ, USA). Whole-section images were visualized using the software NDP View (Hamamatsu, Bridgewater, NJ, USA).

LAPC-4 xenografts [4] = test: Cholesterol/lipid panel in plasma (method B, hospital laboratory); type: in vivo, mice
Protocol: Total cholesterol, triglycerides, cholesterol-HDL (high-density lipoproteins), cholesterol-LDL (low-density lipoproteins), cholesterol non-HDL, and the ratio of total cholesterol/cholesterol-HDL were determined in the plasma of mice treated PO with RM-581 (3, 10, and 30 mg/kg) or abiraterone acetate (60 mg/kg). Analyses were performed at the CHU de Québec/L’Enfant-Jésus (Medical Hospital Laboratory; Project N°: 9014625056) using a Cobas Lipid Panel from Roche.

LAPC-4 xenografts [5] = test: Cholesterol determination in tumor, liver, plasma (kit, method A); type: in vivo, mice; details: 10 mg/kg PO, NS vs CTL
Protocol: A cholesterol quantification kit provided by Sigma-Aldrich (Catalog Number MAK043) was used following the manufacturer’s instructions to determine the concentration of total cholesterol, free cholesterol, and cholesteryl ester in samples. The cholesterol contents were measured in samples from two different protocols. […] Secondly, in tumor, liver, and plasma obtained at the end of the LAPC-4 xenograft experiment (control group and the group treated with RM-581 at 10 mg/kg/PO).

22Rv1 = test: PCa cell viability proliferation screening (MTS), 22Rv1; type: cell-based; details: Homo sapiens, 72 h, 22Rv1, AR positive, three days
Protocol: VCaP (4 × 10^4 cells/well) were seeded in 96-well plates in DMEM media supplemented with 10% fetal bovine serum (FBS), penicillin, streptomycin, and sodium pyruvate. 22Rv1 cells (2 × 10^3 cells/well) and LAPC-4 cells (6 × 10^3 cells/well) were seeded in 96-well plates in RPMI media supplemented with 10% FBS, penicillin, streptomycin, and sodium pyruvate. The cells were incubated at 37 °C in a 5% CO2 humidified atmosphere for 24 h before treatment with multiple concentrations of RM-581 dissolved in dimethyl sulfoxide (DMSO). The concentrations used were between 0.01 μM and 50 μM. Treatment lasted for 3 days for all the cell lines except VCaP cells, which were treated for 7 days due to slower proliferation rates. At the end of the assay, 20 μL of MTS (Cell Titer 96 Aqueous, Promega, Nepean, ON, Canada) were added to each well, and the mixture was incubated for 4 h at 37 °C. The plates were subsequently analyzed at 490 nm using a Tecan M-200 microplate reader (Männedorf, Switzerland).

LAPC-4 cells [6] = test: Gene expression study by qPCR; type: cell-based, human; details: RM-581 5 µM or atorvastatin 10 µM, CTL fixed at 1.0
Protocol: LAPC-4 cells (3 × 10^5) were treated with RM-581 (1, 2, and 5 µM) at different times (6, 18, 24, and 36 h) and the expression of various genes was determined as previously reported. Primer sequences used for the analysis of each gene are reported in Table S3 (Supplementary Materials).

SMILES: C#C[C@]1(O)CC[C@H]2[C@@H]3CCc4cc(OC)c(N5CCN(C(=O)[C@@H]6CCCN6C(=O)c6ccc7ccccc7n6)CC5)cc4[C@H]3CC[C@@]21C [RM-581]
- IC50 (DU-145): 4400 nM
- early and late apoptotic cells (LAPC-4 cells [1]; 2 to 50 µM): significant and increasing proportion
- necrotic cells (LAPC-4 cells [1]; 30 and 50 µM): very low and non-significant
- viable cells (LAPC-4 cells [1]; 30 and 50 µM, dropped from 92%): 20%
- RM-581 in Plasma ([2]; 3 mg/kg PO): 15 ng/mL and 0.023 µM
- RM-581 in Tumor ([2]; 3 mg/kg PO): 50 ng/g and 0.077 µM
- RM-581 in Plasma ([2]; 10 mg/kg PO): 30 ng/mL and 0.046 µM
- RM-581 in Tumor ([2]; 10 mg/kg PO): 300 ng/g and 0.464 µM
- RM-581 in Plasma ([2]; 30 mg/kg PO): 171 ng/mL and 0.265 µM
- RM-581 in Tumor ([2]; 30 mg/kg PO): 940 ng/g and 1.465 µM
- concentration at 3 h ([2]; plasma, 30 mg/kg PO, read-out: RM-581 in Plasma): 171 ng/mL
- concentration at 3 h ([2]; plasma, PO, read-out: RM-581 in Plasma): 15 ng/mL
- Kp at 3 h ([2]; 3 mg/kg PO): 3.3
- Kp at 3 h ([2]; 10 mg/kg PO): 10
- Kp at 3 h ([2]; 30 mg/kg PO): 5.5
- concentration at 3 h ([2]; tumor, 30 mg/kg PO, read-out: RM-581 in Tumor): 940 ng/g
- concentration at 3 h ([2]; tumor, PO, read-out: RM-581 in Tumor): 50 ng/g
- signs of toxicity during xenograft protocol ([3]; nude mice, 3, 10, 30 mg/kg PO): no signs of apparent toxicity
- body weight of treated vs untreated mice ([3]; nude mice): no significant difference
- histology of liver, kidney and prostate (HE) ([3]; nude mice): tissue morphology was not affected
- T-CHOL (total cholesterol), plasma (LAPC-4 xenografts [4]; 10 mg/kg PO, NS vs CTL): 1182 ± 338 (NS) µg/mL
- plasma triglycerides, cholesterol-HDL, -LDL, non-HDL, ratio total cholesterol/cholesterol-HDL vs control (LAPC-4 xenografts [4]; Figure S3): no significant difference
- F-CHOL (free cholesterol), liver (LAPC-4 xenografts [5]): 2410 ± 10 (NS) µg/g
- F-CHOL (free cholesterol), plasma (LAPC-4 xenografts [5]): 403 ± 120 (NS) µg/mL
- F-CHOL (free cholesterol), tumor (LAPC-4 xenografts [5]): 3270 ± 236 (NS) µg/g
- T-CHOL (total cholesterol), liver (LAPC-4 xenografts [5]): 2440 ± 475 (NS) µg/g
- T-CHOL (total cholesterol), plasma (LAPC-4 xenografts [5]): 1820 ± 500 (NS) µg/mL
- T-CHOL (total cholesterol), tumor (LAPC-4 xenografts [5]): 4543 ± 2476 (NS) µg/g
- IC50 (22Rv1): 1380 nM
- ACAT1 mRNA expression (LAPC-4 cells [6]; 6 h): 0.7 *
- ACLY mRNA expression (LAPC-4 cells [6]; 6 h): 0.8
- FASN mRNA expression (LAPC-4 cells [6]; 6 h): 1.0
- HMGCR mRNA expression (LAPC-4 cells [6]; 6 h): 1.9 **
- HMGCS1 mRNA expression (LAPC-4 cells [6]; 6 h): 2.7 **
- LDLR mRNA expression (LAPC-4 cells [6]; 6 h): 1.4
- MVD mRNA expression (LAPC-4 cells [6]; 6 h): 2.7 **
- MVK mRNA expression (LAPC-4 cells [6]; 6 h): 1.2
- SCD1 mRNA expression (LAPC-4 cells [6]; 6 h): 0.7
- ACAT1 mRNA expression (LAPC-4 cells [6]; 18 h): 0.9
- ACLY mRNA expression (LAPC-4 cells [6]; 18 h): 0.4 **
- FASN mRNA expression (LAPC-4 cells [6]; 18 h): 0.5 **
- HMGCR mRNA expression (LAPC-4 cells [6]; 18 h): 1.2
- HMGCS1 mRNA expression (LAPC-4 cells [6]; 18 h): 3.3 **
- LDLR mRNA expression (LAPC-4 cells [6]; 18 h): 1.8 **
- MVD mRNA expression (LAPC-4 cells [6]; 18 h): 1.8 **
- MVK mRNA expression (LAPC-4 cells [6]; 18 h): 1.6
- SCD1 mRNA expression (LAPC-4 cells [6]; 18 h): 0.8
- ACAT1 mRNA expression (LAPC-4 cells [6]; 24 h): 1.1
- ACLY mRNA expression (LAPC-4 cells [6]; 24 h): 0.9
- FASN mRNA expression (LAPC-4 cells [6]; 24 h): 0.6 *
- HMGCR mRNA expression (LAPC-4 cells [6]; 24 h): 2.6 **
- HMGCS1 mRNA expression (LAPC-4 cells [6]; 24 h): 2.4 **
- LDLR mRNA expression (LAPC-4 cells [6]; 24 h): 2.6 **
- MVD mRNA expression (LAPC-4 cells [6]; 24 h): 2.1 **
- MVK mRNA expression (LAPC-4 cells [6]; 24 h): 1.0
- SCD1 mRNA expression (LAPC-4 cells [6]; 24 h): 2.5 **
- ACAT1 mRNA expression (LAPC-4 cells [6]; 36 h): 1.2
- ACLY mRNA expression (LAPC-4 cells [6]; 36 h): 0.9
- FASN mRNA expression (LAPC-4 cells [6]; 36 h): 0.6 *
- HMGCR mRNA expression (LAPC-4 cells [6]; 36 h): 2.5 **
- HMGCS1 mRNA expression (LAPC-4 cells [6]; 36 h): 2.0 **
- LDLR mRNA expression (LAPC-4 cells [6]; 36 h): 2.5 **
- MVD mRNA expression (LAPC-4 cells [6]; 36 h): 1.6 **
- MVK mRNA expression (LAPC-4 cells [6]; 36 h): 1.0
- SCD1 mRNA expression (LAPC-4 cells [6]; 36 h): 3.5 **

Source: publication PMC10252594 (Cancers, 2023)
